# Laboratory results reported in patent US20050014647A1, “Method and composition for determining resistance to an acetohydroxy-acid synthase inhibitor” (priority 2001, published 2005).
# Several values for one entry are separate records, joined by “and”; a condition that tells them apart may be missing. Equal entries are not always repeated.
# Assays:
# Type in all cases: cell-based
# AHAS [1] = test: in vivo AHAS assay, canola leaf discs with external supplement; conditions: canola, 14 hours; for % of No Alaninor Pyruvate: Alanine 0 %; for % of 0/0 / OD 530, Avg. of the treated discs / OD 530, Treated: replicates 1-3; for OD 530, Treated: single treated discs
# Procedure: The procedure for the preparation of an in vivo AHAS assay is described below:
# For the experiments, plants are grown from seed in soil in a greenhouse. Most experiments used wild type and imidazolinone resistant varieties of wheat, canola, rice, sunflower, and maize.
# For the assay, a a microtiter plate is set up with 100 μl of one of the following solutions in each well: • a. Solution A: 10 mM phosphate buffer, pH 6; 10% Murashige and Skoog basal mineral salts (according to Murashige, T. and Skoog, F., Physiol. Plant., 15 473-497 (1962)); 500 μM CPCA (cyclopropyldicarboxylic acid); • b. Solution B: Solution A+alanine (or other supplements); • c. Solution C: Solution A+a pyruvate salt (or other supplements).
# Plant material is excised from the newest emerging, rapidly growing leaf or stem from the test plant and placed in one of the microtiter plates. Usually, 5 mm leaf discs are cut from the newest emerging leaf. At least 2 discs per plant are cut. One disc is put in a well with Solution A and the other disc in a well with one of the other Solutions B or C (what solution are you using for background?).
# After all wells in the microtiter plate contain plant material, the plate is covered with the microtiter plate cover and the plate with material is placed in a chamber with continuous fluorescent lights for 12 to 16 hours. The incubation is stopped by placing the plate in −20° C. freezer. After tissue and solutions freeze, the plate is thawed at room temperature and 25 μL of 5% sulfuric acid are added to each well. After incubation at 60° C. for 15 minutes, 175 μL of a freshly prepared mixture of α-naphthol (2.5%) and creatine (0.25%) in 2 N NaOH are added to each well and the plate is incubated at 60° C. for 15 minutes.
# 200 μL from each well are transferred to a new plate and OD530 on microtiter plate is readed by a spectrophotometer.
# AHAS [2] = test: AHAS assay of resistant and non-resistant crops, wheat leaf slices; design: dose or concentration left out as unconfirmed; conditions: imazamox and CPCA, average of four plants
# Procedure: (§1) For the experiments, plants are grown from seed in soil in a greenhouse. The experiments used wild type and imidazolinone resistant varieties of maize and wheat.
# (§2) For the assay, a microtiter plate is set up with […] of one of the following solutions in each well: • Solution A: 10 mM phosphate buffer (pH 4.4), 10% prepared Murashige and Skoog basal mineral salt stock solution, 0.5% (w/v) alanine, 50 mM pyruvate salt, and 0.5 mM CPCA (cyclopropyldicarboxylic acid); • Solution B: Solution A+0.0025 mM imazamox; • Solution C: Solution A without 0.5 mM CPCA
# (§3) Plant material is excised from the newest emerging leaf for wheat or rapidly growing stem for maize from the test plant and placed in one of the microtiter plates. Usually, 3 to 5 mm slices are cut from the newest emerging leaf or stem. At least 3 same-length slices per plant are cut. One disc is put in a well with Solution A, one in a well with Solution B, and the last one in a well with Solution C.
# (§4) After all wells in the microtiter plate contain plant material, the plate is covered with a plate cover and is placed under continuous fluorescent lights for 14 to 18 hours. The incubation is stopped by placing the plate in a −20° C. freezer. After tissue and solutions freeze, the plate is thawed at room temperature, and […] of 5% sulfuric acid is added to each well. After incubation at 60° C. for 15 minutes, […] of a freshly prepared mixture of α-naphthol (2.5%, w/v) and creatine (0.25%, w/v) in 2 N NaOH are added to each well and the plate is incubated at 60° C. for 15 minutes.
# (§5) A 190 μl solution from each well is transferred to a new plate, and OD530 on microtiter plate is readed by a spectrophotometer.
# (§6) AHAS activity of each plant is determined by the following formula: (OD530 of well B−OD530 of well C)/(OD530 of well A−OD530 of well C).
# AHAS [3] = test: AHAS assay of resistant and non-resistant crops, maize stem slices; design: dose or concentration left out as unconfirmed; conditions: imazamox and CPCA, average of four plants
# Procedure: as §1, §2, §3, §4, §5, §6
compound,measurement,setting,value
"CC(=O)C(=O)O [Pyruvate, Na-Pyruvate]",% of No Alaninor Pyruvate,AHAS [1]; Pyruvate 25 mM,110%
same,% of No Alaninor Pyruvate,AHAS [1]; Pyruvate 50 mM,139%
same,% of No NH4 or Pyruvate,"AHAS [1]; NH4 0 mM, Pyruvate 6.25 mM",109%
same,% of No NH4 or Pyruvate,"AHAS [1]; NH4 0 mM, Pyruvate 12.5 mM",128%
same,% of No NH4 or Pyruvate,"AHAS [1]; NH4 0 mM, Pyruvate 25 mM",138%
same,% of No NH4 or Pyruvate,"AHAS [1]; NH4 0 mM, Pyruvate 50 mM",175%
same,% of 0/0,AHAS [1]; Pyruvate (100 mM),134% and 153% and 188%
same,"OD 530, Avg. of the treated discs",AHAS [1]; Pyruvate (100 mM),1.510 and 1.730 and 1.950
same,"OD 530, Treated",AHAS [1]; Pyruvate (100 mM),1.526 and 1.848 and 1.972 and 1.469 and 1.846 and 2.235 and 1.725 and 1.796 and 2.100
COCc1cnc(C2=NC(C)(C(C)C)C(=O)N2)c(C(=O)O)c1 (stereo not shown) [imazamox],Relative AHAS activity (%),AHAS [2]; Wheat variety CV 9804 (Moderate-resistance),22.4%
same,Relative AHAS activity (%),AHAS [2]; Wheat variety Riband (Non-resistance),1.5%
same,Relative AHAS activity (%),AHAS [2]; Wheat variety Teal 15A (High-resistance),57.7%
same,Relative AHAS activity (%),AHAS [3]; Maize variety Garst 8541 IT (Moderate-resistance),45.2%
same,Relative AHAS activity (%),AHAS [3]; Maize variety Pioneer 3395 IR (High-resistance),67.3%
same,Relative AHAS activity (%),AHAS [3]; Maize variety Pioneer 3514 (Non-resistance),5.8%
"N.O [NH4OH, ammonium hydroxide]",% of No NH4 or Pyruvate,"AHAS [1]; NH4 6.25 mM, Pyruvate 0 mM",101%
same,% of No NH4 or Pyruvate,"AHAS [1]; NH4 12.5 mM, Pyruvate 0 mM",138%
same,% of No NH4 or Pyruvate,"AHAS [1]; NH4 25 mM, Pyruvate 0 mM",128%
same,% of No NH4 or Pyruvate,"AHAS [1]; NH4 50 mM, Pyruvate 0 mM",142%
same,% of 0/0,AHAS [1]; NH4OH (50 mM),113% and 111% and 157%
same,"OD 530, Avg. of the treated discs",AHAS [1]; NH4OH (50 mM),0.697 and 0.886 and 1.386
same,"OD 530, Treated",AHAS [1]; NH4OH (50 mM),0.604 and 0.880 and 1.386 and 0.522 and 0.866 and 1.177 and 1.003 and 0.953 and 1.845
"NC(=O)C[C@H](N)C(=O)O [Asparagine, L-asparagine]",% of 0/0,AHAS [1]; Asparagine (100 mM),107% and 141% and 91%
same,"OD 530, Avg. of the treated discs",AHAS [1]; Asparagine (100 mM),1.384 and 0.796 and 1.206
same,"OD 530, Treated",AHAS [1]; Asparagine (100 mM),1.011 and 0.718 and 1.279 and 1.343 and 0.880 and 1.094 and 1.843 and 0.907 and 1.186
